ChEMBL document CHEMBL3779792, “Anti-proliferative evaluation of monoterpene derivatives against leukemia” (Eur J Med Chem, 2016)

test system: Raji; test: Cytotoxicity against human Raji cells after 72 hrs by Cell-Titer Glo assay; assay type: functional, cell-based; conditions: not given

SMILES | EC50 [µM]
C=C[C@@](C)(/C=C/c1ccc(O)cc1)CC/C=C/C(=O)OCC | > 26
C=C[C@@](C)(/C=C/c1ccc(O)c(/C=C/c2ccc(Cl)c(Cl)c2)c1)CCC=C(C)C | > 26
COc1ccc(/C=C/[C@@](C)(/C=C/c2ccc(O)c(/C=C/C#N)c2)CCC=C(C)C)cc1 | > 26
CCOc1ccc(/C=C/[C@@](C)(/C=C/c2ccc(O)cc2)CCC=C(C)C)cc1 | > 26

test system: HEK293; test: Cytotoxicity against HEK293 cells after 72 hrs by Cell-Titer Glo assay; assay type: cell-based; conditions: Homo sapiens, HEK293, 72 h

SMILES | EC50 [µM]
C=C[C@@](C)(/C=C/c1ccc(O)cc1)CC/C=C/C(=O)OCC | > 36.6
C=C[C@@](C)(/C=C/c1ccc(O)c(/C=C/c2ccc(Cl)c(Cl)c2)c1)CCC=C(C)C | > 36.6
COc1ccc(/C=C/[C@@](C)(/C=C/c2ccc(O)c(/C=C/C#N)c2)CCC=C(C)C)cc1 | > 36.6
CCOc1ccc(/C=C/[C@@](C)(/C=C/c2ccc(O)cc2)CCC=C(C)C)cc1 | > 36.6

test system: BJ; test: Cytotoxicity against human BJ cells after 72 hrs by Cell-Titer Glo assay; assay type: cell-based; conditions: not given

SMILES | EC50 [µM]
C=C[C@@](C)(/C=C/c1ccc(O)cc1)CC/C=C/C(=O)OCC | > 36.6
C=C[C@@](C)(/C=C/c1ccc(O)c(/C=C/c2ccc(Cl)c(Cl)c2)c1)CCC=C(C)C | > 13
COc1ccc(/C=C/[C@@](C)(/C=C/c2ccc(O)c(/C=C/C#N)c2)CCC=C(C)C)cc1 | > 23.7
CCOc1ccc(/C=C/[C@@](C)(/C=C/c2ccc(O)cc2)CCC=C(C)C)cc1 | > 36.6

test system: not listed separately; test: Cytotoxicity against human NALM6 cells after 72 hrs by Cell-Titer Glo assay; assay type: functional, cell-based; conditions: NALM-6, 72 h

SMILES | EC50 [µM]
C=C[C@@](C)(/C=C/c1ccc(O)cc1)CC/C=C/C(=O)OCC | > 43.5
C=C[C@@](C)(/C=C/c1ccc(O)c(/C=C/c2ccc(Cl)c(Cl)c2)c1)CCC=C(C)C | 7.51
COc1ccc(/C=C/[C@@](C)(/C=C/c2ccc(O)c(/C=C/C#N)c2)CCC=C(C)C)cc1 | 16.5
CCOc1ccc(/C=C/[C@@](C)(/C=C/c2ccc(O)cc2)CCC=C(C)C)cc1 | > 43.5

test system: Jurkat; test: Cytotoxicity against human Jurkat cells after 72 hrs by Cell-Titer Glo assay; assay type: functional, cell-based; conditions: not given

SMILES | EC50 [µM]
C=C[C@@](C)(/C=C/c1ccc(O)cc1)CC/C=C/C(=O)OCC | > 49
C=C[C@@](C)(/C=C/c1ccc(O)c(/C=C/c2ccc(Cl)c(Cl)c2)c1)CCC=C(C)C | > 49
COc1ccc(/C=C/[C@@](C)(/C=C/c2ccc(O)c(/C=C/C#N)c2)CCC=C(C)C)cc1 | > 49
CCOc1ccc(/C=C/[C@@](C)(/C=C/c2ccc(O)cc2)CCC=C(C)C)cc1 | > 49

test system: not listed separately; test: Cytotoxicity against human SEM cells after 72 hrs by Cell-Titer Glo assay; assay type: functional, cell-based; conditions: not given

SMILES | EC50 [µM]
C=C[C@@](C)(/C=C/c1ccc(O)cc1)CC/C=C/C(=O)OCC | > 36.6
C=C[C@@](C)(/C=C/c1ccc(O)c(/C=C/c2ccc(Cl)c(Cl)c2)c1)CCC=C(C)C | > 7.51
COc1ccc(/C=C/[C@@](C)(/C=C/c2ccc(O)c(/C=C/C#N)c2)CCC=C(C)C)cc1 | 4.54
CCOc1ccc(/C=C/[C@@](C)(/C=C/c2ccc(O)cc2)CCC=C(C)C)cc1 | > 36.6

test system: HepG2; test: Cytotoxicity against human HepG2 cells after 72 hrs by Cell-Titer Glo assay; assay type: functional, cell-based; conditions: HepG2, 72 h

SMILES | EC50 [µM]
C=C[C@@](C)(/C=C/c1ccc(O)cc1)CC/C=C/C(=O)OCC | > 52.1
C=C[C@@](C)(/C=C/c1ccc(O)c(/C=C/c2ccc(Cl)c(Cl)c2)c1)CCC=C(C)C | > 52.1
COc1ccc(/C=C/[C@@](C)(/C=C/c2ccc(O)c(/C=C/C#N)c2)CCC=C(C)C)cc1 | > 26
CCOc1ccc(/C=C/[C@@](C)(/C=C/c2ccc(O)cc2)CCC=C(C)C)cc1 | > 52.1
